Experiments:
[1] = system: Blumeria Graminis f. sp. Tritici (Erysiphe Graminis f. sp. Tritici); test: Blumeria graminis f. sp. tritici / wheat / leaf disc preventative (powdery mildew on wheat); assay type: in vivo; details: foliar, wheat leaf disc cv. Kanzler, compared to untreated, 6-8 days after application, read-out: disease control
Procedure: Fungicidal Activity Against Blumeria Graminis f. sp. Tritici (Erysiphe Graminis f. sp. Tritici)/Wheat/Leaf Disc Preventative (Powdery Mildew on Wheat) Wheat leaf segments cv. Kanzler were placed on agar in a multiwell plate (24-well format) and sprayed with the formulated test compound diluted in water. The leaf disks were inoculated by shaking powdery mildew infected plants above the test plates 1 day after application. The inoculated leaf disks were incubated at 20° C. and 60% rh under a light regime of 24 h darkness followed by 12 h light/12 h darkness in a climate chamber and the activity of a compound was assessed as percent disease control compared to untreated when an appropriate level of disease damage appears on untreated check leaf segments (6-8 days after application).

[2] = system: Puccinia Recondita f. sp. Tritici; test: Puccinia recondita f. sp. tritici / wheat / leaf disc preventative (brown rust); assay type: in vivo; details: foliar, wheat leaf disc cv. Kanzler, compared to untreated, 7-9 days after application, read-out: disease control
Procedure: Fungicidal Activity Against Puccinia Recondita f. sp. Tritici/Wheat/Leaf Disc Preventative (Brown Rust) Wheat leaf segments cv. Kanzler were placed on agar in multiwell plates (24-well format) and sprayed with the formulated test compound diluted in water. The leaf disks were inoculated with a spore suspension of the fungus 1 day after application. The inoculated leaf segments were incubated at 19° C. and 75% rh under a light regime of 12 h light/12 h darkness in a climate cabinet and the activity of a compound was assessed as percent disease control compared to untreated when an appropriate level of disease damage appears in untreated check leaf segments (7-9 days after application).

[3] = system: Puccinia Recondita f. sp. Tritici; test: Puccinia recondita f. sp. tritici / wheat / leaf disc curative (brown rust); assay type: in vivo; details: foliar, 192 h, compared to untreated, 8 days after inoculation, read-out: disease control
Procedure: Fungicidal Activity Against Puccinia Recondita f. sp. Tritici/Wheat/Leaf Disc Curative (Brown Rust) Wheat leaf segments are placed on agar in multiwell plates (24-well format). The leaf disks are then inoculated with a spore suspension of the fungus. One day after inoculation the test solution is applied. After appropriate incubation the activity of a compound is assessed 8 dpi (days after inoculation) as curative fungicidal activity. Dose range: 200-22 ppm.

[4] = system: Mycosphaerella Arachidis (Cercospora Arachidicola); test: Mycosphaerella arachidis (Cercospora arachidicola) / liquid culture (early leaf spot); assay type: cell-based; details: liquid culture (PDB), growth inhibition photometrically 4-5 days after application, read-out: disease control
Procedure: Fungicidal Activity Against Mycosphaerella Arachidis (Cercospora Arachidicola)/Liquid Culture (Early Leaf Spot) Conidia of the fungus from cryogenic storage were directly mixed into nutrient broth (PDB potato dextrose broth). After placing a (DMSO) solution of test compound into a microtiter plate (96-well format), the nutrient broth containing the fungal spores was added. The test plates were incubated at 24° C. and the inhibition of growth was determined photometrically 4-5 days after application.

[5] = system: Mycosphaerella Graminicola (Septoria Tritici); test: Mycosphaerella graminicola (Septoria tritici) / liquid culture (Septoria blotch); assay type: cell-based; details: Zymoseptoria tritici, liquid culture (PDB), growth inhibition photometrically 4-5 days after application, read-out: disease control
Procedure: Fungicidal Activity Against Mycosphaerella Graminicola (Septoria Tritici)/Liquid Culture (Septoria Blotch) Conidia of the fungus from cryogenic storage were directly mixed into nutrient broth (PDB potato dextrose broth). After placing a (DMSO) solution of test compound into a microtiter plate (96-well format), the nutrient broth containing the fungal spores was added. The test plates were incubated at 24° C. and the inhibition of growth was determined photometrically 4-5 days after application.

[6] = system: Thanatephorus Cucumeris (Rhizoctonia Solani); test: Thanatephorus cucumeris (Rhizoctonia solani) / liquid culture (foot rot, damping-off); assay type: cell-based; details: liquid culture (PDB), growth inhibition photometrically 3-4 days after application, read-out: disease control
Procedure: Fungicidal Activity Against Thanatephorus Cucumeris (Rhizoctonia Solani)/Liquid Culture (Foot Rot, Damping-Off) Mycelia fragments of a newly grown liquid culture of the fungus were directly mixed into nutrient broth (PDB potato dextrose broth). After placing a (DMSO) solution of the test compounds into a microtiter plate (96-well format), the nutrient broth containing the fungal material was added. The test plates were incubated at 24° C. and the inhibition of growth was determined photometrically 3-4 days after application. Compounds (from table T1) 1, 2, 4, 7, 8, 10, 11, 13, 14 and 17 at 200 ppm give at least 80% disease control in this test when compared to untreated control leaf disks under the same conditions, which show extensive disease development.

OC(Cn1cncn1)(c1ccc(F)cc1)C1(c2ccc(C(F)(F)F)cn2)CC1 (stereo not drawn) [Compound 13, 1-(4-fluorophenyl)-2-(1,2,4-triazol-1-yl)-1-[1-[5-(trifluoromethyl)-2-pyridyl]cyclopropyl]ethanol]
≥ 80%: pest or weed control at 200 ppm [1] | pest or weed control at 200 ppm [2] | pest or weed control at 200 ppm [3] | inhibition of growth at 200 ppm [4] | inhibition of growth at 200 ppm [5] | inhibition of growth at 200 ppm [6]

OC(Cn1cncn1)(c1ccc(F)cc1)C1(c2ccc(Cl)cn2)CC1 (stereo not drawn) [Compound 14, 1-[1-(5-chloro-2-pyridyl)cyclopropyl]-1-(4-fluorophenyl)-2-(1,2,4-triazol-1-yl)ethanol]
≥ 80%: pest or weed control at 200 ppm [1] | pest or weed control at 200 ppm [2] | pest or weed control at 200 ppm [3] | inhibition of growth at 200 ppm [4] | inhibition of growth at 200 ppm [5] | inhibition of growth at 200 ppm [6]

OC(Cn1cncn1)(c1ccc(F)cc1)C1(c2ccc(Br)cn2)CCC1 (stereo not drawn) [Compound 17, 1-[1-(5-bromo-2-pyridyl)cyclobutyl]-1-(4-fluorophenyl)-2-(1,2,4-triazol-1-yl)ethanol]
≥ 80%: pest or weed control at 200 ppm [1] | pest or weed control at 200 ppm [2] | pest or weed control at 200 ppm [3] | inhibition of growth at 200 ppm [4] | inhibition of growth at 200 ppm [5] | inhibition of growth at 200 ppm [6]

— US9655363B2, “Microbiocides” (Syngenta Participations AG, priority 2013, dated 2017)
